From patent publication US20120156311A1, “COMBINATION THERAPY FOR CANCER COMPRISING A PLATINUM-BASED ANTINEOPLASTIC AGENT AND A BIOCOMPATIBLE ELECTRON DONOR” (priority 2009, published 2012)
Entries after “also recorded” stand apart in the source; their conditions may differ.

Tests used:
[1] = tested on: HeLa (cervical cancer) cells; assay: MTT cell survival assay in HeLa cells; format: cell-based, human
Method: Thus, appropriate doses of the molecular promoters were selected by initially screening for toxicity. […] The viability of cells was measured by MTT assay, one of the most commonly used cell viability assays. This method involves the conversion of MTT (3-(4,5-dimethylthiazol-2-yl)-2,5-diphenyltetrazolium bromide) to an insoluble formazan by metabolically-active cells (live cells). Using a solubilizing agent, the formazan is dissolved and its absorbance measured, giving indication to the number of cells that survive.
Cells were cultured in 96-well plates (5×10^3 cells/well) for 24 h. The culture medium was replaced by new culture medium and incubated for 24 h with varying drug concentrations. After the drug treatment, cells were replaced with new medium containing 1.2 mM MTT (Sigma) and incubated for 4 h. The medium was then removed and the formazan crystals solubilized by 100 μL DMSO. The surviving fraction was determined by measuring the absorbance at 540 nm using a Multiskan Spectrum UV/Vis microplate reader (Thermo Scientific), which is directly proportional to the number of viable cells.

[2] = tested on: NIH-OVCAR-3 (HTB-161) cisplatin-resistant human ovarian cancer cells; assay: MTT cell viability assay in cisplatin-resistant HTB-161 cells; format: cell-based; conditions: for effect of combination with cisplatin on viability and drug resistance: cisplatin combined with electron donor (100 μM TMPD)
Method: Briefly, HTB-161 cells were plated at a density of 7×10^3 cells/well in 96-well plates. […] After incubation for specified times at 37° C. in a humidified incubator, 20 μL of MTT (5 mg/mL in PBS) were added to each well, and cells were incubated for a further 4 h. After removal of the medium, 100 μL DMSO was added to each well. The absorbance was recorded on a microplate reader at the wavelength of 540 nm.

[3] = tested on: NIH-OVCAR-3 (HTB-161) cisplatin-resistant human ovarian cancer cells; assay: APO-BrdU TUNEL DNA fragmentation assay (flow cytometry) in HTB-161 cells; format: cell-based
Method: The method based on terminal deoxyribonucleotidyl transferase (TdT)-mediated dUTP nick-end labelling was used to determine the cell apoptosis. […] DNA fragmentation was measured by using the APO-BrdU TUNEL assay. […] After trypsinized, the cells were washed with PBS, were processed for labeling with the deoxythymidine analog 5-bromo-2′-deoxyuridine 5′-triphosphate (BrdUTP), and were incubated with an Alexa Fluor 488 dye-labeled anti-BrdU antibody and propidium iodide by the use of an APO-BrdU™ TUNEL Assay Kit (Invitrogen) as per manufacturer's protocol. The labeled cells were analyzed by flow cytometry.

[4] = tested on: HeLa (cervical cancer) cells; assay: APO-BrdU TUNEL DNA fragmentation assay (flow cytometry) in HeLa cells; format: cell-based, human; conditions: for cells with DNA fragmentation (BrdU-positive): 48 h
Method: DNA fragmentation was detected using a standard apoptosis assay, APO-BrdU TUNEL, which utilizes the fact that DNA strand breaks expose a large number of 3′-OH ends, which act as a starting point for terminal deoxynucleotidyl transferase (TdT) to add deoxyribonucleotides. The break sites are labeled by the addition of BrdUTP in the presence of the TdT enzyme. An anti-BrdU antibody conjugated with a fluorescent molecule is added to detect the strand breaks by measuring their fluorescence intensities using flow cytometry. The cell cycle distribution can also be detected simultaneously from the ordinate axis of the generated dot plot (with the BrdU-content on the y-axis), where the events with fluorescence intensity above the background indicate the cells with fragmented DNA (within upper box).
Cells were cultured in 25 cm^2 flasks (˜8×10^7 cells/flask) for 24 h. The culture medium was replaced by new medium and incubated for 48 h with varying drug concentrations. Both floating and adherent cells were harvested by trypsinization and fixed using 1% paraformaldehyde for 30 minutes. Cells were then permeabilized using 70% ice-cold ethanol for at least 24 h at −20° C. Samples were prepared for DNA fragmentation measurements using the APO-BrdU DNA Fragmentation Assay (Invitrogen). To label the DNA, ethanol was removed and cells were resuspended in 50 μL of TUNEL reaction buffer containing terminal deoxynucleotidyl transferase and BrdUTP for 1 h at 37° C., shaking every 15 min. After overnight room temperature incubation, the cells were then incubated with Alexa Fluor 488-conjugated BrdUTP-antibody for 30 min at room temperature. Cells were also stained with propidium iodide (5 μg/mL) and incubated with RNase A for 30 min at room temperature to determine the total cellular DNA content. Samples were then analyzed by a Becton-Dickinson FACSVantage SE flow cytometer in pulse processing mode (10 000 cells per sample). Computational analyses were performed using FCS Express software (De Novo Software, Los Angeles, Calif.) to obtain FL1-H versus FL2-A dot plots (log versus linear, respectively), gating on front scatter (FSC) versus side scatter (SSC) to eliminate debris, as well as FL2-A versus FL2-W to eliminate doublets. Experiments were performed independently at least 3 times
DNA fragmentation was measured by using the APO-BrdU TUNEL assay.

[5] = tested on: NIH-OVCAR-3 (HTB-161) cisplatin-resistant human ovarian cancer cells; assay: Cell cycle analysis by flow cytometry in HTB-161 cells; format: cell-based; conditions: cisplatin alone or with 100 μM TMPD, 24 h
Method: HTB-161 cells were plated at a density of 2×10^5 per well on six-well plates. […] The cells were trypsinized, washed twice with chilled PBS, and centrifuged. The cell pellet was resuspended in 70% ethanol at −20° C. overnight. The cells were centrifuged at 1,000 rpm for 5 min; the pellet was washed twice with chilled PBS, suspended in 500 μL PBS, and incubated with RNase (20 μg/mL final concentration) at 25° C. for 30 min and with propidium iodide (50 μg/mL final concentration) for an additional 30 minutes. The cells were analyzed by flow cytometry. Flow cytometry was done with a FACS vantage SE (Becton Dickinson). A minimum of 10,000 cells per sample were counted and the DNA histograms were further analyzed by using FCS Express software for cell cycle analysis.

[6] = tested on: Plasmid DNA [pGEM 3Zf(−), 3197 kp]; assay: Agarose gel electrophoresis of plasmid DNA damage; format: biochemical, Escherichia Coli; conditions: cisplatin alone, up to 3.0 mM
From the text: The gel electrophoresis was used for quantitative measurements of plasmid DNA damage, characterizing single-strand breaks (SSBs), double-strand breaks (DBSs) and crosslinks (CLs). We also used the γH2AX DNA damage assay (Invitrogen) to detect DSBs of genomic DNA in cancer cells. Briefly, DNA damaging radicals induce phosphorylation of histone variant H2AX (Ser139) forming DNA foci at the site of DNA DSBs. Phosphorylated H2AX aids in the recruitment of proteins responsible for DSB repair.
Aliquots equivalent to 96 ng DNA were removed from the solutions for gel electrophoresis. All aliquots were analyzed with a standard agarose gel electrophoresis method, namely, on 1% neutral TAE agarose gel in TAE running buffer. The gel was prestained with 1 μg/ml ethidium bromide.

## CC1(C)C(/C=C/C=C/C=C/C=C2\N(CCCCS(=O)(=O)[O-])c3ccc4ccccc4c3C2(C)C)=[N+](CCCCS(=O)(=O)[O-])c2ccc3ccccc3c21.[Na+] [ICG, Indocyanine green]
[1]; ICG alone, up to 200 μM
  toxicity of ICG alone (cell survival): no significant toxicity
[2]
  effect of combination with cisplatin on viability and drug resistance: rendered cisplatin-resistant tumor cells almost completely sensitive

## CN(C)c1ccc(N(C)C)cc1 [TMPD, N,N, N′,N′-tetramethyl-p-phenylene diamine]
[3]; 100 μM TMPD alone
  DNA fragmentation (BrdU positive cells): 0.04%
[1]; TMPD alone, up to 100 μM
  toxicity of TMPD alone (cell survival / viability): very mild toxicity; also recorded: only slightly decreased the cell viability; also recorded: no significant toxicity
[2]; 100 μM TMPD alone
  cell viability: slight decrease of the cell viability
[2]
  effect of combination with cisplatin on viability and drug resistance: rendered cisplatin-resistant tumor cells almost completely sensitive
[4]; 100 μM TMPD alone
  cells with DNA fragmentation (BrdU-positive): 2%

## N.N.[Cl][Pt][Cl] [cisplatin, cis-diamminedichloroplatinum(II)]
[3]; 50 μM cisplatin without or with 100 μM TMPD
  DNA fragmentation (BrdU positive cells): 3.61%
[1]; 10 and 20 μM cisplatin alone
  killing of HeLa cells: 20%
[1]; CDDP alone, 24 h
  cell survival rates: decreased the cell survival rates in a dose-dependent manner
[2]; cisplatin alone, 200-300 uM
  resistance of HTB-161 cells to cisplatin: strong resistance
[5]
  distribution of cells in the cell cycle: accumulation of cells in the G1 phase
[6]
  DNA strand breaks in plasmid DNA: no SSBs and DSBs but intrastrand cross links only; also recorded: intrastrand cross links only, with no SSBs or DSBs
[4]; 10 μM CDDP without or with 100 μM TMPD
  cells with DNA fragmentation (BrdU-positive): 9%
[4]; 25 μM CDDP without or with 100 μM TMPD
  cells with DNA fragmentation (BrdU-positive): 6%
[4]; 50 μM CDDP without or with 100 μM TMPD
  cells with DNA fragmentation (BrdU-positive): 38%
[4]; HeLa cells, CDDP as single agent (lower doses) or with TMPD
  cell cycle arrest: accumulate in the G2/M phase
